From PubChem BioAssay AID1963427 (Molecular Pharmacology Branch, DTP, NCI, 2024)

System: 317291-083-R-J1-PDC complex spheroid growth
Test: Anticancer human tumor 317291-083-R-J1-PDC patient-derived soft tissue sarcoma cell line growth inhibition [Asc]
Settings: for IC50: curve of first compound; for viability, T/C: stronger effect = lower value
Procedure, shortened: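 Concentration series start at each agent's clinical Cmax, or at 10 microM when none is established, and drop in half-log steps; agents are applied alone or together to complex spheroids built with HUVEC and hMSC.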
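Also: compound exposure lasted seven days after spheroids formed for three days.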
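For viability, T/C in this document: 100% = DMSO vehicle control wells.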

`CCN1CCN(Cc2ccc(Nc3ncc(F)c(-c4cc(F)c5nc(C)n(C(C)C)c5c4)n3)nc2)CC1` + Cc1c(S(C)(=O)=O)c(-c2cc(F)cc(N3CCN(c4ccc(NS(=O)(=O)c5ccc(NC(CCN6CCC(C(=O)OCCCP(=O)(O)O)CC6)CSc6ccccc6)c(S(=O)(=O)C(F)(F)F)c5)cc4)CC3)c2)c(-c2ccc(Cl)cc2)n1C(C)C showed an IC50 (second compound 0.0316 µM) of 0.871 µM, an IC50 (second compound 0.1 µM) of 0.647 µM and an IC50 (second compound 0.316 µM) of 0.402 µM. The IC50 (second compound 1 µM) was 0.373 µM, the IC50 (second compound 3.16 µM) was 0.242 µM and the IC50 (second compound 10 µM) was 0.372 µM. The viability, T/C (second compound 0.0316 µM, first compound 0.00316 µM) was 97.4%, the viability, T/C (second compound 0.0316 µM, first compound 0.01 µM) was 105% and the viability, T/C (second compound 0.0316 µM, first compound 0.0316 µM) was 87%. It also gave a viability, T/C (second compound 0.0316 µM, first compound 0.1 µM) of 87.2%, a viability, T/C (second compound 0.0316 µM, first compound 0.316 µM) of 70% and a viability, T/C (second compound 0.0316 µM, first compound 1 µM) of 46.8%. For the same molecule, the viability, T/C (second compound 0.1 µM, first compound 0.00316 µM) was 113%, the viability, T/C (second compound 0.1 µM, first compound 0.01 µM) was 85.7% and the viability, T/C (second compound 0.1 µM, first compound 0.0316 µM) was 90.4%. The viability, T/C (second compound 0.1 µM, first compound 0.1 µM) was 74%, the viability, T/C (second compound 0.1 µM, first compound 0.316 µM) was 63.6% and the viability, T/C (second compound 0.1 µM, first compound 1 µM) was 41%. The viability, T/C (second compound 0.316 µM, first compound 0.00316 µM) was 94.1%, the viability, T/C (second compound 0.316 µM, first compound 0.01 µM) was 80.5% and the viability, T/C (second compound 0.316 µM, first compound 0.0316 µM) was 77.8%. For the same molecule, the viability, T/C (second compound 0.316 µM, first compound 0.1 µM) was 62.1%, the viability, T/C (second compound 0.316 µM, first compound 0.316 µM) was 66.6% and the viability, T/C (second compound 0.316 µM, first compound 1 µM) was 26.7%. It also gave a viability, T/C (second compound 1 µM, first compound 0.00316 µM) of 87.2%, a viability, T/C (second compound 1 µM, first compound 0.01 µM) of 88% and a viability, T/C (second compound 1 µM, first compound 0.0316 µM) of 67.8%. For the same molecule, the viability, T/C (second compound 1 µM, first compound 0.1 µM) was 88.2%, the viability, T/C (second compound 1 µM, first compound 0.316 µM) was 54% and the viability, T/C (second compound 1 µM, first compound 1 µM) was 25.9%. For the same molecule, the viability, T/C (second compound 3.16 µM, first compound 0.00316 µM) was 75.8%, the viability, T/C (second compound 3.16 µM, first compound 0.01 µM) was 80.5% and the viability, T/C (second compound 3.16 µM, first compound 0.0316 µM) was 73.5%. For the same molecule, the viability, T/C (second compound 3.16 µM, first compound 0.1 µM) was 63.7%, the viability, T/C (second compound 3.16 µM, first compound 0.316 µM) was 46% and the viability, T/C (second compound 3.16 µM, first compound 1 µM) was 24.9%. It also gave a viability, T/C (second compound 10 µM, first compound 0.00316 µM) of 82.7%, a viability, T/C (second compound 10 µM, first compound 0.01 µM) of 90.5% and a viability, T/C (second compound 10 µM, first compound 0.0316 µM) of 96.3%. It also gave a viability, T/C (second compound 10 µM, first compound 0.1 µM) of 78.7%, a viability, T/C (second compound 10 µM, first compound 0.316 µM) of 54.6% and a viability, T/C (second compound 10 µM, first compound 1 µM) of 25.7%.

Molecule `NC(=O)C(=Cn1cnc(-c2cc(C(F)(F)F)cc(C(F)(F)F)c2)n1)c1cncnc1` + Cc1c(S(C)(=O)=O)c(-c2cc(F)cc(N3CCN(c4ccc(NS(=O)(=O)c5ccc(NC(CCN6CCC(C(=O)OCCCP(=O)(O)O)CC6)CSc6ccccc6)c(S(=O)(=O)C(F)(F)F)c5)cc4)CC3)c2)c(-c2ccc(Cl)cc2)n1C(C)C has an IC50 (second compound 0.0316 µM) of 0.0195 µM, an IC50 (second compound 0.1 µM) of 0.0263 µM and an IC50 (second compound 0.316 µM) of 0.0155 µM. The IC50 (second compound 1 µM) was 0.0178 µM, the IC50 (second compound 3.16 µM) was 0.0144 µM and the IC50 (second compound 10 µM) was 0.0242 µM. The viability, T/C (second compound 0.0316 µM, first compound 0.000949 µM) was 105%, the viability, T/C (second compound 0.0316 µM, first compound 0.003 µM) was 73.8% and the viability, T/C (second compound 0.0316 µM, first compound 0.00949 µM) was 71.2%. For the same molecule, the viability, T/C (second compound 0.0316 µM, first compound 0.03 µM) was 47.7%, the viability, T/C (second compound 0.0316 µM, first compound 0.0949 µM) was 3.73% and the viability, T/C (second compound 0.0316 µM, first compound 0.3 µM) was 1.57%. The viability, T/C (second compound 0.1 µM, first compound 0.000949 µM) was 98.8%, the viability, T/C (second compound 0.1 µM, first compound 0.003 µM) was 94.7% and the viability, T/C (second compound 0.1 µM, first compound 0.00949 µM) was 72.6%. For the same molecule, the viability, T/C (second compound 0.1 µM, first compound 0.03 µM) was 53.8%, the viability, T/C (second compound 0.1 µM, first compound 0.0949 µM) was 4.66% and the viability, T/C (second compound 0.1 µM, first compound 0.3 µM) was 0.74%. The viability, T/C (second compound 0.316 µM, first compound 0.000949 µM) was 99.6%, the viability, T/C (second compound 0.316 µM, first compound 0.003 µM) was 114% and the viability, T/C (second compound 0.316 µM, first compound 0.00949 µM) was 59.6%. For the same molecule, the viability, T/C (second compound 0.316 µM, first compound 0.03 µM) was 31.9%, the viability, T/C (second compound 0.316 µM, first compound 0.0949 µM) was 1.71% and the viability, T/C (second compound 0.316 µM, first compound 0.3 µM) was 0.54%. The viability, T/C (second compound 1 µM, first compound 0.000949 µM) was 89.3%, the viability, T/C (second compound 1 µM, first compound 0.003 µM) was 88.8% and the viability, T/C (second compound 1 µM, first compound 0.00949 µM) was 69.8%. For the same molecule, the viability, T/C (second compound 1 µM, first compound 0.03 µM) was 33.5%, the viability, T/C (second compound 1 µM, first compound 0.0949 µM) was 5.89% and the viability, T/C (second compound 1 µM, first compound 0.3 µM) was 0.53%. The viability, T/C (second compound 3.16 µM, first compound 0.000949 µM) was 74.7%, the viability, T/C (second compound 3.16 µM, first compound 0.003 µM) was 76.1% and the viability, T/C (second compound 3.16 µM, first compound 0.00949 µM) was 59.4%. The viability, T/C (second compound 3.16 µM, first compound 0.03 µM) was 31.6%, the viability, T/C (second compound 3.16 µM, first compound 0.0949 µM) was 2.57% and the viability, T/C (second compound 3.16 µM, first compound 0.3 µM) was 0.29%. It also gave a viability, T/C (second compound 10 µM, first compound 0.000949 µM) of 105%, a viability, T/C (second compound 10 µM, first compound 0.003 µM) of 118% and a viability, T/C (second compound 10 µM, first compound 0.00949 µM) of 84.4%. For the same molecule, the viability, T/C (second compound 10 µM, first compound 0.03 µM) was 44.5%, the viability, T/C (second compound 10 µM, first compound 0.0949 µM) was 1.64% and the viability, T/C (second compound 10 µM, first compound 0.3 µM) was 0.33%.
